# Assay results taken from article PMC9098870, “Integrated omics approach to unveil antifungal bacterial polyynes as acetyl-CoA acetyltransferase inhibitors” (Communications Biology, 2022).
# Columns and labels:
# MasL = target: T1, MasL ([Empedobacter] haloabium, UniProt A0A915Q9D3); assay: CoA release, fluorescent probe; progress curves, covalent inhibitor model; assay type: biochemical
# T1 construct: gene E7V67_18950; recombinant, purified from E. coli; residues 1-394 described; tetramer in solution; reactive Cys90, His350, Cys380; tag details in supplement
# T1 sequence (A0A915Q9D3 entry or part of it): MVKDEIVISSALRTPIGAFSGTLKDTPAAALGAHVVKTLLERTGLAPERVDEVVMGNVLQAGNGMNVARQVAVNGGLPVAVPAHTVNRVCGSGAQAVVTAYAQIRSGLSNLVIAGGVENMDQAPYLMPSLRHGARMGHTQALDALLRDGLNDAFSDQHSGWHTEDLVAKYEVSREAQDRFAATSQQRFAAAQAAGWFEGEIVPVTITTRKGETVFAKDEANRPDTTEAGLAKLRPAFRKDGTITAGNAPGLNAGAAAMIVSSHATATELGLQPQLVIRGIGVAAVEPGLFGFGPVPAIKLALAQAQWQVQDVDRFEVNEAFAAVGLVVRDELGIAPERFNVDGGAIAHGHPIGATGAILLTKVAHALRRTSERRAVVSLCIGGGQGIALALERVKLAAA
# From the text: CoA release, fluorescent probe; progress curves, covalent inhibitor model on MasL
# [1] = target: MasL (acetyl-CoA acetyltransferase of Massilia sp. YMA4), apo form (Massilia sp. YMA4); assay: crystal structure; X-ray crystal structures of MasL, apo and after incubation with collimonin C or D; a tetramer in the asymmetric unit (space groups P1, P2_(1), P1)
# [2] = target: MasL (acetyl-CoA acetyltransferase of Massilia sp. YMA4), apo form (Massilia sp. YMA4); assay: not stated; oligomeric state of MasL in solution; method not given
# [3] = target: MasL-collimonin C complex (MasL covalently modified by collimonin C at Cys90) (Massilia sp. YMA4); assay: crystal structure; X-ray crystal structures of MasL, apo and after incubation with collimonin C or D; a tetramer in the asymmetric unit (space groups P1, P2_(1), P1)
# [4] = target: MasL-collimonin D complex (MasL modified by collimonin D) (Massilia sp. YMA4); assay: as above
compound,measurement,setting,value
"C#CC#CC#C/C=C/C[C@@H](O)[C@@H](O)CCCCC(=O)O [compound 1, collimonin C]",KI (inactivation),"MasL; covalent, irreversible S-alkylation of Cys90, competitive against acetyl-CoA, complex structure 1.66 Å",297 µM
"C#CC#CC#C/C=C/C[C@@H](O)[C@H](O)CCCCC(=O)O [compound 2, collimonin D]",KI (inactivation),"MasL; covalent, irreversible S-alkylation of Cys90 (by MS), competitive against acetyl-CoA, complex structure 1.40 Å",42.8 µM
"C#CC#CC#C/C=C/CCC(O)CCCCC(=O)O (centres unmarked) [compound 3, massilin A]",KI (inactivation),"MasL; covalent, adduct by mass spectrometry",132 µM
"C#CC#CC#C/C=C/CCCCCCCC(=O)O [compound 5, massilin C]",KI (inactivation),MasL; covalent inhibitor model,228 µM
"MasL (acetyl-CoA acetyltransferase of Massilia sp. YMA4), apo form (enzyme)",stoichiometry N,[1],4
same,stoichiometry N,[2],4
MasL-collimonin C complex (MasL covalently modified by collimonin C at Cys90) (enzyme),stoichiometry N,[3],4
MasL-collimonin D complex (MasL modified by collimonin D) (enzyme),stoichiometry N,[4],4
